Results taken from publication PMC5601486, “Identification of 4-phenylquinolin-2(1H)-one as a specific allosteric inhibitor of Akt” (Scientific Reports, 2017).

Columns and labels:
[1] = system: CDK4; test: KINOMEscan; details: 50000 nM
Experimental: KINOMEscan™ selectivity screen
(§1) Briefly, Kinase-tagged T7 phage strains were grown in parallel in an E. coli host derived from the BL21 strain. E. coli were grown to log-phase and infected with T7 phage from a frozen stock and incubated with shaking at 32°C until lysis (90-150 minutes). The kinases were produced in HEK-293 cells and subsequently tagged with DNA for qPCR detection. Streptavidin-coated magnetic beads were treated with biotinylated small molecule ligands to generate affinity resins for kinase
(§2) inhibitor or DMSO control was performed in polypropylene 384-well plates for 1 hr at room temperature. After wash with PBS buffer containing 0.05% Tween 20, the beads were incubated in elution buffer (PBS containing 0.05 % Tween 20 and 0.5 μM non-biotinylated affinity ligand) for 30 minutes at room temperature. The kinase concentration in the eluates was measured by qPCR.

[2] = system: PIK3CA(M1043I); test: KINOMEscan; details: 50000 nM
Experimental: KINOMEscan™ selectivity screen
(§3) The assay was perfor med at DiscoveRx Corporation according the methods published previously5. Briefly, Kinase-tagged T7 phage strains were grown in parallel in an E. coli host derived from the BL21 strain. E. coli were grown to log-phase and infected with T7 phage from a frozen stock and incubated with shaking at 32°C until lysis (90-150 minutes). The kinases were produced in HEK-293 cells and subsequently tagged with DNA for qPCR detection. Streptavidin-coated magnetic beads were treated with biotinylated small molecule ligands to generate affinity resins for kinase
as §2

[3] = system: DRAK1; test: KINOMEscan; details: 50000 nM
Experimental: KINOMEscan™ selectivity screen
as §1, §2

[4] = system: PIP5K1A; test: KINOMEscan; details: 50000 nM
[5] = system: p38-delta; test: KINOMEscan; details: 50000 nM
Experimental: KINOMEscan™ selectivity screen
as §1, §2

[6] = system: ZAP70; test: KINOMEscan; details: 50000 nM
Experimental: KINOMEscan™ selectivity screen
as §1, §2

[7] = system: MKNK1; test: KINOMEscan; details: 50000 nM
Experimental: KINOMEscan™ selectivity screen
as §1, §2

[8] = system: T1, PI3K; test: ADP-Glo kinase assay; type: biochemical; details: 50 µM
T1 construct: purchased SignalChem P27-10H-05

[9] = system: PIK3CA(H1047L); test: KINOMEscan; details: 50000 nM
Experimental: KINOMEscan™ selectivity screen
as §3, §2

[10] = system: RIOK1; test: KINOMEscan; details: 50000 nM
Experimental: KINOMEscan™ selectivity screen
as §3, §2

[11] = system: PRKG2; test: KINOMEscan; details: 50000 nM
Experimental: KINOMEscan™ selectivity screen
as §3, §2

[12] = system: KIT(L576P); test: KINOMEscan; details: 50000 nM
Experimental: KINOMEscan™ selectivity screen
as §1, §2

[13] = system: YES; test: KINOMEscan; details: 50000 nM
Experimental: KINOMEscan™ selectivity screen
as §3, §2

[14] = system: TYK2(JH1domain-catalytic); test: KINOMEscan; details: 50000 nM
Experimental: KINOMEscan™ selectivity screen
as §3, §2

[15] = system: CHEK2; test: KINOMEscan; details: 50000 nM
Experimental: KINOMEscan™ selectivity screen
as §1, §2

[16] = system: LRRK2(G2019S); test: KINOMEscan; details: 50000 nM
Experimental: KINOMEscan™ selectivity screen
as §3, §2

[17] = system: EPHB4; test: KINOMEscan; details: 50000 nM
Experimental: KINOMEscan™ selectivity screen
as §1, §2

[18] = system: RSK2(Kin.Dom.2-C-terminal); test: KINOMEscan; details: 50000 nM
Experimental: KINOMEscan™ selectivity screen
as §3, §2

[19] = system: BMPR1B; test: KINOMEscan; details: 50000 nM
Experimental: KINOMEscan™ selectivity screen
as §3, §2

[20] = system: PAK7; test: KINOMEscan; details: 50000 nM
Experimental: KINOMEscan™ selectivity screen
as §3, §2

[21] = system: IRAK1; test: KINOMEscan; details: 50000 nM
Experimental: KINOMEscan™ selectivity screen
as §3, §2

[22] = system: FLT1; test: KINOMEscan; details: 50000 nM
Experimental: KINOMEscan™ selectivity screen
as §3, §2

[23] = system: MYO3B; test: KINOMEscan; details: 50000 nM
Experimental: KINOMEscan™ selectivity screen
as §3, §2

[24] = system: HASPIN; test: KINOMEscan; details: 50000 nM
Experimental: KINOMEscan™ selectivity screen
as §3, §2

[25] = system: TRKA; test: KINOMEscan; details: 50000 nM
Experimental: KINOMEscan™ selectivity screen
as §3, §2

[26] = system: JNK3; test: KINOMEscan; details: 50000 nM
Experimental: KINOMEscan™ selectivity screen
as §3, §2

[27] = system: FLT3(K663Q); test: KINOMEscan; details: 50000 nM
Experimental: KINOMEscan™ selectivity screen
as §1, §2

[28] = system: STK16; test: KINOMEscan; details: 50000 nM
Experimental: KINOMEscan™ selectivity screen
The kinases were produced in HEK-293 cells and subsequently tagged with DNA for qPCR detection. Streptavidin-coated magnetic beads were treated with biotinylated small molecule ligands to generate affinity resins for kinase
as §2

[29] = system: T2, PRP4; test: KINOMEscan; type: binding, human; details: 50000 nM
T2 construct: purchased DiscoveRx KINOMEscan

[30] = system: ROCK1; test: KINOMEscan; details: 50000 nM
Experimental: KINOMEscan™ selectivity screen
as §1, §2

[31] = system: p38-beta; test: KINOMEscan; details: 50000 nM
Experimental: KINOMEscan™ selectivity screen
as §3, §2

[32] = system: LKB1; test: KINOMEscan; details: 50000 nM
Experimental: KINOMEscan™ selectivity screen
(§4) The assay was perfor med at DiscoveRx Corporation according the methods published previously5. […] The kinases were produced in HEK-293 cells and subsequently tagged with DNA for qPCR detection. Streptavidin-coated magnetic beads were treated with biotinylated small molecule ligands to generate affinity resins for kinase
as §2

[33] = system: LYN; test: KINOMEscan; details: 50000 nM
Experimental: KINOMEscan™ selectivity screen
as §3, §2

[34] = system: MAST1; test: KINOMEscan; details: 50000 nM
Experimental: KINOMEscan™ selectivity screen
as §3, §2

[35] = system: CSNK2A2; test: KINOMEscan; details: 50000 nM
Experimental: KINOMEscan™ selectivity screen
as §1, §2

[36] = system: ABL1(Y253F)-phosphorylated; test: KINOMEscan; details: 50000 nM
Experimental: KINOMEscan™ selectivity screen
as §3, §2

[37] = system: RET; test: KINOMEscan; details: 50000 nM
Experimental: KINOMEscan™ selectivity screen
as §3, §2

[38] = system: ASK2; test: KINOMEscan; details: 50000 nM
Experimental: KINOMEscan™ selectivity screen
as §1, §2

[39] = system: PRKCI; test: KINOMEscan; details: 50000 nM
Experimental: KINOMEscan™ selectivity screen
as §3, §2

[40] = system: AURKC; test: KINOMEscan; details: 50000 nM
Experimental: KINOMEscan™ selectivity screen
as §3, §2

[41] = system: BRK; test: KINOMEscan; details: 50000 nM
Experimental: KINOMEscan™ selectivity screen
as §3, §2

[42] = system: DRAK2; test: KINOMEscan; details: 50000 nM
Experimental: KINOMEscan™ selectivity screen
as §3, §2

[43] = system: EPHA1; test: KINOMEscan; details: 50000 nM
Experimental: KINOMEscan™ selectivity screen
as §3, §2

[44] = system: YANK3; test: KINOMEscan; details: 50000 nM
Experimental: KINOMEscan™ selectivity screen
as §3, §2

[45] = system: PRKD2; test: KINOMEscan; details: 50000 nM
Experimental: KINOMEscan™ selectivity screen
as §3, §2

[46] = system: MARK2; test: KINOMEscan; details: 50000 nM
Experimental: KINOMEscan™ selectivity screen
as §1, §2

[47] = system: CSNK1D; test: KINOMEscan; details: 50000 nM
Experimental: KINOMEscan™ selectivity screen
as §3, §2

[48] = system: T3, PFPK5(P.falciparum); test: KINOMEscan; type: binding; details: 50000 nM
T3 construct: purchased DiscoveRx KINOMEscan

[49] = system: NEK10; test: KINOMEscan; details: 50000 nM
Experimental: KINOMEscan™ selectivity screen
as §3, §2

[50] = system: FLT3(ITD); test: KINOMEscan; details: 50000 nM
Experimental: KINOMEscan™ selectivity screen
as §4, §2

[51] = system: SNARK; test: KINOMEscan; details: 50000 nM
Experimental: KINOMEscan™ selectivity screen
as §3, §2

[52] = system: ABL1-phosphorylated; test: KINOMEscan; details: 50000 nM
Experimental: KINOMEscan™ selectivity screen
as §3, §2

[53] = system: ABL2; test: KINOMEscan; details: 50000 nM
Experimental: KINOMEscan™ selectivity screen
as §3, §2

Compound: Oc1cc(-c2ccccc2)c2ccccc2n1 [G7, 4-phenylquinolin-2(1H)-one]
- Percent Control [1]: 100%
- Percent Control [2]: 100%
- Percent Control [3]: 65%
- Percent Control [4]: 70%
- Percent Control [5]: 100%
- Percent Control [6]: 100%
- Percent Control [7]: 69%
- effect on PI3K activity [8]: no effects
- Percent Control [9]: 89%
- Percent Control [10]: 95%
- Percent Control [11]: 100%
- Percent Control [12]: 22%
- Percent Control [13]: 93%
- Percent Control [14]: 72%
- Percent Control [15]: 100%
- Percent Control [16]: 63%
- Percent Control [17]: 92%
- Percent Control [18]: 100%
- Percent Control [19]: 83%
- Percent Control [20]: 57%
- Percent Control [21]: 53%
- Percent Control [22]: 81%
- Percent Control [23]: 100%
- Percent Control [24]: 57%
- Percent Control [25]: 65%
- Percent Control [26]: 86%
- Percent Control [27]: 29%
- Percent Control [28]: 75%
- Percent Control [29]: 79%
- Percent Control [30]: 69%
- Percent Control [31]: 97%
- Percent Control [32]: 96%
- Percent Control [33]: 88%
- Percent Control [34]: 100%
- Percent Control [35]: 70%
- Percent Control [36]: 56%
- Percent Control [37]: 51%
- Percent Control [38]: 78%
- Percent Control [39]: 98%
- Percent Control [40]: 66%
- Percent Control [41]: 96%
- Percent Control [42]: 86%
- Percent Control [43]: 89%
- Percent Control [44]: 93%
- Percent Control [45]: 82%
- Percent Control [46]: 65%
- Percent Control [47]: 45%
- Percent Control [48]: 85%
- Percent Control [49]: 66%
- Percent Control [50]: 52%
- Percent Control [51]: 45%
- Percent Control [52]: 73%
- Percent Control [53]: 94%
